Laboratory results published in patent US7094869B2, “Low molecular weight peptidomimetic growth hormone secretagogues” (Genentech, Inc., priority 1994, dated 2006).
Like-named read-outs stand apart in the source and are kept apart here. Starred links: 1 amine or outer side, 2 acyl side, 3 side chain; linkers in the order of their positions; H or OH if unused. Non-standard residues stand in square brackets, D forms with d. Residues, ends and D or L forms follow the SMILES beside them. ξ: configuration not given here. *: point of attachment. dNMe2Nal = CN[C@H](Cc1ccc2ccccc2c1)C(=O)O; dPhe(4-Cl) = N[C@H](Cc1ccc(Cl)cc1)C(=O)O; 2Nal = N[C@@H](Cc1ccc2ccccc2c1)C(=O)O; d2Nal = N[C@H](Cc1ccc2ccccc2c1)C(=O)O; ξ2Nal = NC(Cc1ccc2ccccc2c1)C(=O)O; NMeGABA = CN(CCCC(=O)[*:2])[*:1]; hPhe = N[C@@H](CCc1ccccc1)C(=O)O; Inp = O=C(O)C1CCNCC1; ξK = NCCCCC(N)C(=O)O; NHtBu = CC(C)(C)N*; Ava = NCCCCC(=O)O; GABA = NCCCC(=O)O; βAla = NCCC(=O)O

What was measured:
[1] = test system: growth hormone secretion; assay: GHRP induced growth hormone secretion, intravenous administration (Rat IV); format: in vivo; conditions: iv injection, serum GH 10 min after injection
Procedure: Immature weanling female Sprague Dawley rats were purchased from Charles River Labs (Portage, […].) and group housed with water and food available ad libitum. When the rats were 24-30 days old (weighing 50-90 g) they were anesthetized with pentobarbitone (4 mg in 0.5 ml, approximately 60 mg/kg) given by intraperitoneal injection. The rats were then placed briefly on a heated pad, to distend their tail veins, and given an intravenous tail vein injection of the peptides 20 minutes after receiving the anesthetic. The intravenous injection was of 0.1 ml using a 1 ml syringe. The injections contained graded doses of peptides or the vehicle (vehicle for all peptides given intravenously was a buffer of 20 mM sodium acetate, 45 g/l mannitol, pH 5.0). Ten minutes after the intravenous injection blood was taken by cardiac puncture, using a 3 ml syringe, and the rats were then sacrificed.
The blood was then clotted on ice, centrifuged, serum decanted and frozen for subsequent analysis using the rat GH ELISA described elsewhere in the application. For the rat GH ELISA the serum was diluted 1:50 or 1:250, depending on the expected serum GH concentrations achieved, and assayed in duplicate.

[2] = target: rat pituitary cells (Rattus norvegicus, UniProt O08725); conditions: read-out: PIT Cell EC50, GH release, 15 min incubation
In short: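 Primary rat anterior pituitary cells, cultured three days in DME low glucose/10% FBS, were washed, pre-incubated twice for 15 min, then challenged 15 min with test compounds (DMSO ≤0.1%) at 37 °C. Released GH was measured by two-site ELISA; EC50 came from 4-parameter fits, mean of three to four independent determinations.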

[3] = Table III, formula IV compounds
[4] = Table IV, formula III compounds
[5] = Table VI, retroinverso compounds of formula V

rat pituitary cells, sequence (O08725 whole entry): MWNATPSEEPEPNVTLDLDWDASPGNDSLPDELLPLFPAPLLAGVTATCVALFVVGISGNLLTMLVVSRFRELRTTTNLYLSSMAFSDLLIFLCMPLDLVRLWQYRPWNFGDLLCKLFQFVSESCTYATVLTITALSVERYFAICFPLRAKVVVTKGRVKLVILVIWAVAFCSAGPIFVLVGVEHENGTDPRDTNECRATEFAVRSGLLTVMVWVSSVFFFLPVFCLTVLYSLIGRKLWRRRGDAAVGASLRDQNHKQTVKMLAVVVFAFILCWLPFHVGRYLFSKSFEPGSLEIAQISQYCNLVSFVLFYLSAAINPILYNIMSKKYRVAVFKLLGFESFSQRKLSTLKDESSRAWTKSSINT

| SMILES | RAT IV ED50 ([1]; Table III) [µg] | EC50 [2, 3] [nM] | RAT IV ED50 ([1]; Table IV) [µg] | EC50 [2, 4] [nM] | also measured |
| --- | --- | --- | --- | --- | --- |
| NCCCCC(=O)N[C@H](Cc1ccc2ccccc2c1)C(=O)N[C@H](Cc1ccc2ccccc2c1)C(=O)N[C@@H](Cc1ccccc1)C(=O)N[C@H](CC(N)=O)C(N)=O [(Ava) b b F n amide] (H-[Ava][d2Nal][d2Nal]F[dN]-NH2) | 12.5 | 10 |  |  |  |
| NCCCCN(CCc1ccccc1)C(=O)[C@@H](Cc1ccc2ccccc2c1)NC(=O)[C@@H](Cc1ccc2ccccc2c1)NC(=O)C1CCNCC1 [(inip) b b fbd, (inip)-DβNal-DβNal-[N-(2-phenylethyl), N-(4-aminobutyl)] amide] |  |  | 0.67 | 0.9 |  |
| CC(=O)N[C@H](Cc1ccc2ccccc2c1)C(=O)N[C@@H](Cc1ccc2ccccc2c1)C(=O)N[C@@H](Cc1ccc2ccccc2c1)C(=O)NCCCN [Ac b B B ram, Acetyl-DβNal-βNal-βNal-[N-(3-aminopropyl)] amide] |  |  |  |  | RAT IV ED50 ([1]; Table VI): 100 µg; EC50 [2, 5]: 4.8 nM |
| NCCCCC(=O)N[C@H](Cc1ccc2ccccc2c1)C(=O)N[C@H](Cc1ccc2ccccc2c1)C(=O)N[C@@H](Cc1ccccc1)C(=O)N[C@@H](CC(N)=O)C(N)=O [(Ava) b b F N amide] (H-[Ava][d2Nal][d2Nal]FN-NH2) | 200 | 7.7 |  |  |  |
| CN(C(=O)[C@@H](Cc1ccc2ccccc2c1)NC(=O)C1CCNCC1)[C@@H](CO)Cc1ccc2ccccc2c1 [(inip) b nbol, (inip)-DβNal-(N-Methyl-D-β-naphthylalanol)] |  |  |  |  | RAT IV ED50 ([1]; Table V): 20 µg; EC50 ([2]; Table V, formula II compounds): 3 nM |
| CN(C(=O)[C@@H](Cc1ccc2ccccc2c1)NC(=O)CCCCN)[C@H](Cc1ccc2ccccc2c1)C(=O)N[C@@H](Cc1ccccc1)C(=O)N[C@@H](CCCCN)C(N)=O [(Ava) b nmb F K amide] (H-[Ava][d2Nal][dNMe2Nal]FK-NH2) | 100 | 3.8 |  |  |  |
| CN[C@H](Cc1ccc2ccccc2c1)C(=O)N[C@H](Cc1ccc2ccccc2c1)C(=O)N[C@@H](Cc1ccccc1)C(=O)N[C@@H](CCCCN)C(N)=O [nmb b F K amide] (H-[dNMe2Nal][d2Nal]FK-NH2) | 1000 | > 100 |  |  |  |
| CN(C(=O)C1CCNCC1)[C@H](Cc1ccc2ccccc2c1)C(=O)N[C@H](Cc1ccc2ccccc2c1)C(=O)N[C@@H](Cc1ccccc1)C(N)=O [(inip) nmb b F amide] (H-[Inp][dNMe2Nal][d2Nal]F-NH2) |  |  | 5 | 0.5 |  |
| NC(=O)[C@H](Cc1ccccc1)NC(=O)[C@@H](Cc1ccc2ccccc2c1)NC(=O)[C@@H](Cc1ccc(Cl)cc1)NC(=O)C1CCNCC1 [(inip) chf b F amide] (H-[Inp][dPhe(4-Cl)][d2Nal]F-NH2) |  |  | 10 | 2.2 |  |
| NCCCCC(=O)N[C@H](Cc1ccc2ccccc2c1)C(=O)N[C@H](Cc1ccc2ccccc2c1)C(=O)N[C@@H](Cc1ccccc1)C(=O)N1CCC[C@H]1C(N)=O [(Ava) b b F P amide] (H-[Ava][d2Nal][d2Nal]FP-NH2) | 50 | 51 |  |  |  |
| NC(=O)[C@H](Cc1ccccc1)NC(=O)[C@@H](Cc1c[nH]c2ccccc12)NC(=O)[C@@H](Cc1ccc2ccccc2c1)NC(=O)C1CCNCC1 [(inip) b w F amide, (inip)-DβNal-(D-Trp)-Phe-amide] (H-[Inp][d2Nal][dW]F-NH2) |  |  | 0.67 | 0.1 |  |
| O=C(N[C@H](Cc1c[nH]c2ccccc12)C(=O)N[C@@H](CO)Cc1c[nH]c2ccccc12)C1CCNCC1 [(inip) w wol] |  |  |  |  | RAT IV ED50 ([1]; Table V): 20 µg; EC50 ([2]; Table V, formula II compounds): 4 nM |
| NC(=O)[C@H](Cc1ccccc1)NC(=O)[C@@H](Cc1c[nH]c2ccccc12)NC(=O)[C@@H](Cc1c[nH]c2ccccc12)NC(=O)C1CCNCC1 [(inip) w w F amide] (H-[Inp][dW][dW]F-NH2) |  |  | 5 | 0.9 |  |
| CN(C(=O)C1CCNCC1)[C@H](Cc1ccc2ccccc2c1)C(=O)N[C@@H](Cc1ccc2ccccc2c1)C(=O)N[C@@H](Cc1ccccc1)C(=O)O [(inip) nmb B F acid] (H-[Inp][dNMe2Nal][2Nal]F-OH) |  |  | 100 | 7 |  |
| NCCCNC(=O)[C@H](Cc1ccc2ccccc2c1)NC(=O)[C@H](Cc1ccc2ccccc2c1)NC(=O)[C@H](N)Cc1ccc2ccccc2c1 [b B B ram, DβNal-βNal-βNal-[N-(3-aminopropyl)] amide] |  |  |  |  | RAT IV ED50 ([1]; Table VI): 100 µg; EC50 [2, 5]: 15.2 nM |
| NCCCNC(=O)[C@@H](Cc1ccc2ccccc2c1)NC(=O)[C@@H](Cc1ccc2ccccc2c1)NC(=O)C1CCNCC1 [(inip) b b ram] |  |  | 5 | 16 |  |

| SMILES | RAT IV ED50 ([1]; Table III) [µg] | EC50 [2, 3] [nM] | RAT IV ED50 ([1]; Table IV) [µg] | EC50 [2, 4] [nM] | also measured |
| --- | --- | --- | --- | --- | --- |
| CN(C(=O)CCCN)[C@H](Cc1ccc2ccccc2c1)C(=O)N[C@H](Cc1ccc2ccccc2c1)C(=O)N[C@@H](Cc1ccccc1)C(=O)N[C@@H](CCCCN)C(N)=O [(Ab) nmb b F K amide] (H-[GABA][dNMe2Nal][d2Nal]FK-NH2) | 1 | 0.5 |  |  |  |
| N[C@H]1CC[C@H](NC(=O)[C@@H](Cc2ccc3ccccc3c2)NC(=O)[C@@H](Cc2ccc3ccccc3c2)NC(=O)C2CCNCC2)CC1 [(inip) b b cxa] |  |  | 10 | 14 |  |
| C[C@@H](N)C(=O)N[C@H](Cc1c[nH]c2ccccc12)C(=O)N[C@H](Cc1c[nH]c2ccccc12)C(=O)N[C@@H](Cc1ccccc1)C(=O)N[C@@H](CCCCN)C(N)=O [a w w F K amide] (H-[dA][dW][dW]FK-NH2) | 1.47 | 4.1 |  |  |  |
| NCCCCC(=O)N[C@H](Cc1c[nH]c2ccccc12)C(=O)N[C@H](Cc1c[nH]c2ccccc12)C(=O)N[C@@H](Cc1ccccc1)C(=O)N[C@@H](CCCCN)C(N)=O [(Ava) w w F K amide] (H-[Ava][dW][dW]FK-NH2) | 5 | 13 |  |  |  |
| C[C@H](N)C(=O)N[C@H](Cc1ccc2ccccc2c1)C(=O)N[C@H](Cc1ccc2ccccc2c1)C(=O)N[C@@H](Cc1ccccc1)C(=O)N[C@@H](CCCCN)C(N)=O [A b b F K amide] (H-A[d2Nal][d2Nal]FK-NH2) | 10 | 2.1 |  |  |  |
| NCCCC[C@H](NC(=O)[C@H](Cc1ccccc1)NC(=O)[C@@H](Cc1ccc2ccccc2c1)NC(=O)[C@@H](Cc1ccc2ccccc2c1)NC(=O)CCN)C(N)=O [bA b b F K amide] (H-[βAla][d2Nal][d2Nal]FK-NH2) | 6.7 | 4.8 |  |  |  |
| NCCCCC(=O)N[C@H](Cc1ccc2ccccc2c1)C(=O)N[C@H](Cc1ccc2ccccc2c1)C(=O)N[C@@H](CCc1ccccc1)C(=O)N[C@@H](CCCCN)C(N)=O [(Ava) b b hF K amide] (H-[Ava][d2Nal][d2Nal][hPhe]K-NH2) | 50 | 5 |  |  |  |
| O=C(N[C@H](Cc1ccc2ccccc2c1)C(=O)N[C@H](Cc1ccc2ccccc2c1)C(=O)N1CCNCC1)C1CCNCC1 [(inip) b b ppz] |  |  | 10 | 10 |  |
| CN(CCc1ccc2ccccc2c1)C(=O)[C@@H](Cc1ccc2ccccc2c1)NC(=O)C1CCNCC1 [(inip) b men, (inip)-DβNal-[N-methyl, N-1-{2-(2-naphthyl)ethyl}] amide] |  |  |  |  | RAT IV ED50 ([1]; Table V): 500 µg; EC50 ([2]; Table V, formula II compounds): 12 nM |
| O=C(N[C@H](Cc1ccc2ccccc2c1)C(=O)NCCc1ccc2ccccc2c1)C1CCNCC1 [(inip) b npe, (inip)-DβNal-[N-1-{2-(2-naphthyl)ethyl}] amide] |  |  |  |  | RAT IV ED50 ([1]; Table V): 500 µg; EC50 ([2]; Table V, formula II compounds): 11 nM |
| NC(=O)[C@H](Cc1ccccc1)NC(=O)[C@@H](Cc1ccc(Cl)cc1)NC(=O)[C@@H](Cc1ccc2ccccc2c1)NC(=O)C1CCNCC1 [(inip) b chf F amide] (H-[Inp][d2Nal][dPhe(4-Cl)]F-NH2) |  |  | 5 | 2.7 |  |
| CC(C)(C)NC(=O)[C@H](Cc1ccccc1)NC(=O)[C@@H](Cc1ccc2ccccc2c1)NC(=O)[C@@H](Cc1ccc2ccccc2c1)NC(=O)C1CCNCC1 [(inip) b b F tbm] (H-[Inp][d2Nal][d2Nal]F-NHtBu) | 10 | 10 |  |  |  |
| NCCCC[C@H](NC(=O)[C@H](Cc1ccccc1)NC(=O)[C@@H](Cc1ccc2ccccc2c1)NC(=O)[C@@H](Cc1ccc2ccccc2c1)NC(=O)CN)C(N)=O [G b b F K amide] (H-G[d2Nal][d2Nal]FK-NH2) | 100 | 14.9 |  |  |  |
| CNC(=O)[C@H](Cc1ccccc1)NC(=O)[C@@H](Cc1ccc2ccccc2c1)NC(=O)[C@@H](Cc1ccc2ccccc2c1)NC(=O)C1CCNCC1 [(inip) b b F mam] (H-[Inp][d2Nal][d2Nal]F-NHMe) | 2 | 2 |  |  |  |
| CNCCCC(=O)NC(Cc1ccc2ccccc2c1)C(=O)N[C@H](Cc1ccc2ccccc2c1)C(=O)N[C@@H](Cc1ccccc1)C(=O)NC(CCCCN)C(N)=O (stereo partly drawn) [(mab) b b F K amide, [4-(N-methylamino)butanoyl]-DβNal-DβNal-Phe-Lys-amide] (NMeGABA-[ξ2Nal][d2Nal]F[ξK]-NH2) | 0.7 | 1.4 |  |  |  |
| COC(=O)[C@@H](Cc1ccc2ccccc2c1)NC(=O)[C@@H](Cc1ccc2ccccc2c1)NC(=O)C1CCNCC1 [(imp) b b Me ester] (H-[Inp]-[d2Nal]-[d2Nal]-OMe) |  |  |  |  | RAT IV ED50 ([1]; Table V): 100 µg; EC50 ([2]; Table V, formula II compounds): 5 nM |
